Results taken from patent US10519169B2, “3-(1H-pyrrolo[2,3-C]pyridin-2-yl)-1 H-pyrazolo[4,3-B]pyridines and therapeutic uses thereof” (Samumed, LLC, priority 2015, dated 2019).

Columns and labels:
[1] = tested on: primary human mesenchymal stem cells (hMSCs); test: Chondrogenesis induction in hMSCs (chondrogenic nodules); type: cell-based; conditions: 144 h, 6 days; for EC50: concentration required to induce 50% levels of chondrogenesis vs TGF-β3, read-out: Conc (nM) of 50% TGF-β3 activity; for Emax: nodules, relative to TGF-β3 positive control (10 ng/mL), read-out: Max. Activity as % TGF-β3 activity
Method: Representative compounds were screened using primary human mesenchymal stem cells (hMSCs) to determine their ability to induce chondrogenesis (process by which cartilage is developed).
Primary human mesenchymal stem cells (hMSCs) were purchased from Lonza (Walkersville, Md.) and expanded in Mesenchymal Stem Cell Growth Media (Lonza). Cells between passage 3 and 6 were used for the experiments.
Each compound was dissolved in DMSO as a 10 mM stock and used to prepare compound source plates. Serial dilution (1:3, 6-point dose-response curves from 2700 nM to 10 nM) and compound transfer was performed using the ECHO 550 (Labcyte, Sunnyvale, Calif.) into 96-well clear bottom assay plates (Greiner Bio-One) with appropriate DMSO backfill for a final DMSO concentration of 0.03%. hMSCs were plated at 20,000 cells/well in 250 μL/well Incomplete Chondrogenic Induction Medium (Lonza; DMEM, dexamethasone, ascorbate, insulin-transferrin-selenium [ITS supplement], gentamycin-amphotericin [GA-1000], sodium pyruvate, proline and L-glutamine). TGF-03 (10 ng/mL) was used as a positive control for differentiation while negative control wells were treated with 75 nL DMSO for normalization and calculating EC50 values. Cells were incubated at 37° C. and 5% CO2 for 6 days. To image chondrogenic nodules, the cells were fixed using 4% formaldehyde (Electron Microscopy Sciences), and stained with 2 μg/mL Rhodamine B (Sigma-Aldrich) and 20 μM Nile Red (Sigma-Aldrich) [Johnson K., et. al, A Stem Cell-Based Approach to Cartilage Repair, Science, (2012), 336(6082), 717-721]. The nodules imaged (4 images per well at 4× magnification) by excitation at 531 nm and emission at 625 nm and quantified using the CellInsight CX5 (Thermo Scientific). Number of nodules in each well was normalized to the average of 3 DMSO treated wells on the same plate using Excel (Microsoft Inc.). The normalized averages (fold change over DMSO) of 3 replicate wells for each compound concentration were calculated. Due to solubility limitations of some of the compounds, curve fitting was incomplete leading to inaccurate EC50 determinations.
Using TGF-β3 as a positive control, the concentration of representative compounds required to induce 50% levels of chondrogenesis is reported. In addition, the maximum activity of each compound and the respective dose that each compound reached maximum chondrogenesis activity is reported.

[2] = tested on: Wnt activity (Sp5-Luc reporter, TCF/LEF binding sites) in SW480 colon carcinoma cells; test: Wnt activity screening assay, Sp5-Luc reporter gene in SW480 cells; type: cell-based; conditions: Homo sapiens; for EC50: overnight incubation; for inhibition at 10 µM: given for EC50 >10 μM, read-out: percent inhibition at 10 μM
Source text: The screening assay for Wnt activity is described as follows. Reporter cell lines can be generated by stably transducing cancer cell lines (e.g., colon cancer) or primary cells (e.g., IEC-6 intestinal cells) with a lentiviral construct that includes a Wnt-responsive promoter driving expression of the firefly luciferase gene.
SW480 colon carcinoma cells were transduced with a lentiviral vector expressing luciferase with a human Sp5 promoter consisting of a sequence of eight TCF/LEF binding sites. SW480 cells stably expressing the Sp5-Luc reporter gene and a hygromycin resistance gene were selected by treatment with 150 μg/mL of hygromycin for 7 days. These stably transduced SW480 cells were expanded in cell culture and used for all further screening activities. Each compound was dissolved in DMSO as a 10 mM stock and used to prepare compound source plates. Serial dilution (1:3, 10-point dose-response curves starting from 10 μM) and compound transfer was performed using the ECHO 550 (Labcyte, Sunnyvale, Calif.) into 384-well white solid bottom assay plates (Greiner Bio-One) with appropriate DMSO backfill for a final DMSO concentration of 0.1%. For Sp5-Luc reporter gene assays, the cells were plated at 4,000 cells/well in 384-well plates with medium containing 1% fetal bovine serum and incubated overnight at 37° C. and 5% CO2. Following incubation, 20 μl of BrightGlo luminescence reagent (Promega) was added to each well of the 384-well assay plates. The plates were placed on an orbital shaker for 2 min and then luminescence was quantified using the Envision (Perkin Elmer) plate reader. Readings were normalized to DMSO only treated cells, and normalized activities were utilized for EC50 calculations using the dose-response log (inhibitor) vs. response-variable slope (four parameters) nonlinear regression feature available in GraphPad Prism 5.0 (or Dotmatics). For EC50 of >10 μM, the percent inhibition at 10 μM is provided.

SMILES | EC50 [1] [nM] | EC50 [2] [nM] | Emax [1] [%] | inhibition at 10 µM [2] [%]
Fc1cccc(-c2cncc3[nH]c(-c4n[nH]c5ccc(-c6cccnc6)nc45)cc23)c1 [Compound 4, 3-(4-(3-Fluorophenyl)-1H-pyrrolo[2,3-c]pyridin-2-yl)-5-(pyridin-3-yl)-1H-pyrazolo[4,3-b]pyridine] | 30 | 255 | 92 | –
CN(C)c1cncc(-c2ccc3[nH]nc(-c4cc5c(-c6cccc(F)c6)cncc5[nH]4)c3n2)c1 [Compound 7, 5-(3-(4-(3-Fluorophenyl)-1H-pyrrolo[2,3-c]pyridin-2-yl)-1H-pyrazolo[4,3-b]pyridin-5-yl)-N,N-dimethylpyridin-3-amine] | 100 | 516 | 85 | –
Fc1cccc(-c2cncc3[nH]c(-c4n[nH]c5ccc(-c6cncc(CN7CCCCC7)c6)nc45)cc23)c1 [Compound 15, 3-(4-(3-Fluorophenyl)-1H-pyrrolo[2,3-c]pyridin-2-yl)-5-(5-(piperidin-1-ylmethyl)pyridin-3-yl)-1H-pyrazolo[4,3-b]pyridine] | 10 | 3710 | 54 | –
Cc1ccncc1-c1ccc2[nH]nc(-c3cc4c(-c5ccc(F)cc5)cncc4[nH]3)c2n1 [Compound 33, 3-(4-(4-Fluorophenyl)-1H-pyrrolo[2,3-c]pyridin-2-yl)-5-(4-methylpyridin-3-yl)-1H-pyrazolo[4,3-b]pyridine] | – | > 10000 | 28 | 21.5
O=C(Nc1cncc(-c2ccc3[nH]nc(-c4cc5c(-c6ccc(F)cc6)cncc5[nH]4)c3n2)c1)c1ccccc1 [Compound 39, N-(5-(3-(4-(4-Fluorophenyl)-1H-pyrrolo[2,3-c]pyridin-2-yl)-1H-pyrazolo [4,3-b]pyridin-5-yl)pyridin-3-yl)benzamide] | – | 3430 | – | –
Fc1ccc(-c2cncc3[nH]c(-c4n[nH]c5ccc(-c6cncc(CN7CCC(F)(F)C7)c6)nc45)cc23)cc1 [Compound 54, 5-(5-((3,3-Difluoropyrrolidin-1-yl)methyl)pyridin-3-yl)-3-(4-(4-fluorophenyl)-1H-pyrrolo[2,3-c]pyridin-2-yl)-1H-pyrazolo[4,3-b]pyridine] | 900 | 751 | 194 | –
CN(C)Cc1cncc(-c2ccc3[nH]nc(-c4cc5c(-c6ccccc6F)cncc5[nH]4)c3n2)c1 [Compound 69, 1-(5-(3-(4-(2-Fluorophenyl)-1H-pyrrolo[2,3-c]pyridin-2-yl)-1H-pyrazolo [4,3-b]pyridin-5-yl)pyridin-3-yl)-N,N-dimethylmethanamine] | 30 | 1510 | 51 | –
Cc1ccncc1-c1ccc2[nH]nc(-c3cc4c(-c5cccnc5)cncc4[nH]3)c2n1 [Compound 89, 5-(4-Methylpyridin-3-yl)-3-(4-(pyridin-3-yl)-1H-pyrrolo[2,3-c]pyridin-2-yl)-1H-pyrazolo[4,3-b]pyridine] | 10 | > 10000 | 149 | 35.4
FC1(F)CCN(Cc2cncc(-c3ccc4[nH]nc(-c5cc6c(-c7cccnc7)cncc6[nH]5)c4n3)c2)C1 [Compound 110, 5-(5-((3,3-Difluoropyrrolidin-1-yl)methyl)pyridin-3-yl)-3-(4-(pyridin-3-yl)-1H-pyrrolo[2,3-c]pyridin-2-yl)-1H-pyrazolo[4,3-b]pyridine] | – | 3850 | 23 | –
Nc1cncc(-c2ccc3[nH]nc(-c4cc5c(-c6ccncc6)cncc5[nH]4)c3n2)c1 [Compound 115, 5-(3-(4-(Pyridin-4-yl)-1H-pyrrolo[2,3-c]pyridin-2-yl)-1H-pyrazolo[4,3-b]pyridin-5-yl)pyridin-3-amine] | 30 | > 10000 | 53 | 30.1
c1cc(-c2cncc3[nH]c(-c4n[nH]c5ccc(-c6cncc(CN7CCCCC7)c6)nc45)cc23)ccn1 [Compound 127, 5-(5-(Piperidin-1-ylmethyl)pyridin-3-yl)-3-(4-(pyridin-4-yl)-1H-pyrrolo[2,3-c]pyridin-2-yl)-1H-pyrazolo[4,3-b]pyridine] | 10 | > 10000 | 97 | 29.6
O=C(Nc1cncc(-c2ccc3[nH]nc(-c4cc5ccncc5[nH]4)c3n2)c1)C1CCCC1 [Compound 274, N-(5-(3-(1H-Pyrrolo[2,3-c]pyridin-2-yl)-1H-pyrazolo[4,3-b]pyridin-5-yl)pyridin-3-yl)cyclopentanecarboxamide] | 30 | 2630 | 50 | –

More lines, main results first:

EC50 [1] [nM] | EC50 [2] [nM] | SMILES | Emax [1] [%] | inhibition at 10 µM [2] [%]
– | > 10000 | c1ccc(-c2ccc3[nH]nc(-c4cc5ccncc5[nH]4)c3n2)nc1 [Compound 280, 5-(Pyridin-2-yl)-3-(1H-pyrrolo[2,3-c]pyridin-2-yl)-1H-pyrazolo[4,3-b]pyridine] | – | 2.1
– | > 10000 | O=C(Cc1ccccc1)Nc1cncc(-c2ccc3[nH]nc(-c4cc5c(-c6ccoc6)cncc5[nH]4)c3n2)c1 [Compound 318, N-(5-(3-(4-(Furan-3-yl)-1H-pyrrolo[2,3-c]pyridin-2-yl)-1H-pyrazolo[4,3-b]pyridin-5-yl)pyridin-3-yl)-2-phenylacetamide] | – | 0
10 | 980 | Cc1ccncc1-c1ccc2[nH]nc(-c3cc4c(-c5cc(F)cc(CNS(C)(=O)=O)c5)cncc4[nH]3)c2n1 [Compound 481, N-(3-Fluoro-5-(2-(5-(4-methylpyridin-3-yl)-1H-pyrazolo[4,3-b]pyridin-3-yl)-1H-pyrrolo[2,3-c]pyridin-4-yl)benzyl)methanesulfonamide] | 87 | –
10 | 1300 | CS(=O)(=O)NCc1cc(F)cc(-c2cncc3[nH]c(-c4n[nH]c5ccc(-c6cncc(CN7CCCCC7)c6)nc45)cc23)c1 [Compound 491, N-(3-Fluoro-5-(2-(5-(5-(piperidin-1-ylmethyl)pyridin-3-yl)-1H-pyrazolo[4,3-b]pyridin-3-yl)-1H-pyrrolo[2,3-c]pyridin-4-yl)benzyl)methanesulfonamide] | 83 | –
10 | > 10000 | CS(=O)(=O)NCc1cc(F)cc(-c2cncc3[nH]c(-c4n[nH]c5ccc(-c6cncnc6)nc45)cc23)c1 [Compound 503, N-(3-Fluoro-5-(2-(5-(pyrimidin-5-yl)-1H-pyrazolo[4,3-b]pyridin-3-yl)-1H-pyrrolo[2,3-c]pyridin-4-yl)benzyl)methane sulfonamide] | 106 | 46.4
– | > 10000 | Cc1ncc(-c2ccc3[nH]nc(-c4cc5c(-c6ccncc6)cncc5[nH]4)c3n2)n1C [Compound 573, 5-(1,2-Dimethyl-1H-imidazol-5-yl)-3-(4-(pyridin-4-yl)-1H-pyrrolo[2,3-c]pyridin-2-yl)-1H-pyrazolo[4,3-b]pyridine] | – | 43.9
– | > 10000 | c1cc(-c2cncc3[nH]c(-c4n[nH]c5ccc(-c6cncc(OCCN7CCCC7)c6)nc45)cc23)co1 [Compound 690, 3-(4-(Furan-3-yl)-1H-pyrrolo[2,3-c]pyridin-2-yl)-5-(5-(2-(pyrrolidin-1-yl)ethoxy)pyridin-3-yl)-1H-pyrazolo[4,3-b]pyridine] | – | 7.4
